Data on five compounds can be found in PubChem BioAssay AID1053123 (Broad Institute, 2014).

The structures appear in SMILES notation.

The subject of the test is CHO ER-LucT cells, luciferase glycosylation gel shift, 24 h. Description: luciferase glycan loss by western gel shift – CHO ER-LucT cells, western blot, cherry-picked, dose response (AID 1053123). A general note: A gel shift assay detects complexes by their altered migration in electrophoresis.
For the compound `Cc1csc(NC(=O)c2cc(S(=O)(=O)N(C)C)ccc2N2CCCC2)n1`, the half-maximal activity concentration (AC50) (commonly the midpoint of the concentration-response curve, whichever way the signal moves) is 395 nM.

As for `Cc1cnc(NC(=O)c2cc(S(=O)(=O)N(C)C)ccc2N2CCC2)s1`, the AC50 is 10500 nM.

Regarding `Cc1cnc(NC(=O)c2cc(S(=O)(=O)N(C)C)ccc2N2CCCC2)s1`, the AC50 is 7640 nM.

Consider `Cc1cnc(NC(=O)c2cc(S(=O)(=O)N3CCOCC3)ccc2N2CCCC2)s1`, for which the concentration at half-maximal activity (AC50) was 950 nM.

As for `Cc1cnc(NC(=O)c2cc(S(=O)(=O)N3CCCC3)ccc2N2CCCC2)s1`, the AC50 is 2520 nM.
